For one assay, the target named is Activated CDC42 kinase 1 (Homo sapiens, UniProt Q07912). The assay can be described thus: Selectivity interaction (KinaseProfiler™ (Millipore)) EUB0000640a TNK2. The conditions noted are these: at 1 µM.
Assay [1] addresses Proto-oncogene tyrosine-protein kinase ROS (Homo sapiens) (UniProt P08922). Put plainly: Selectivity interaction (KinaseProfiler™ (Millipore)) EUB0000640a ROS1. The following applies: at 1 µM.
Assay [2] concerns the target Tyrosine-protein kinase TXK (Homo sapiens) (UniProt P42681). The assay can be described thus: Selectivity interaction (KinaseProfiler™ (Millipore)) EUB0000640a TXK. The following applies: at 1 µM.
In assay [3] the target is T1, Cytoplasmic tyrosine-protein kinase BMX (Homo sapiens) (UniProt P51813).
T1 sequence (whole entry): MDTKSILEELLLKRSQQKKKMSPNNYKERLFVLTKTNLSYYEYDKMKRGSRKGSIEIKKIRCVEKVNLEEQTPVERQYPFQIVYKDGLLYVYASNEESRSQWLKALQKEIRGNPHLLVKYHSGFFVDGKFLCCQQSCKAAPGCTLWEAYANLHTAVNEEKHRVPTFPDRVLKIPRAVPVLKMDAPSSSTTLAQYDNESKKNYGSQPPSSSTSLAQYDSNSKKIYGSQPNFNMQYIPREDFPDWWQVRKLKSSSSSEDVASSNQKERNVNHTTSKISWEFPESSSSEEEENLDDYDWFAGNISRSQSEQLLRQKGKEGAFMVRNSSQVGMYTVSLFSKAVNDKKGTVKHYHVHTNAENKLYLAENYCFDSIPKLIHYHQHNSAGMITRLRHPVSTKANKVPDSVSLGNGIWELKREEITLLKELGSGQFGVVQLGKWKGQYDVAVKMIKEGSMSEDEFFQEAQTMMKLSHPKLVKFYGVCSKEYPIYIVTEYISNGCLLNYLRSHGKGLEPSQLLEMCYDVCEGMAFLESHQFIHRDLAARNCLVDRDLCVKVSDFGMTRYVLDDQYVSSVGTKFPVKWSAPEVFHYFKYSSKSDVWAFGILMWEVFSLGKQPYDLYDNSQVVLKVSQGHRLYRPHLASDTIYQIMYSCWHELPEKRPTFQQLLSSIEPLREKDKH
Put plainly: Selectivity interaction (KinaseProfiler™ (Millipore)) EUB0000640a BMX. The following applies: at 1 µM.

Assay [4] has as its target Histone-lysine N-methyltransferase EZH1 (Homo sapiens) (UniProt Q92800). The assay can be described thus: Selectivity interaction (Protein methyltransferase panel (activity assay)) EUB0000211b EZH1.
The target in assay [5] is N-lysine methyltransferase SMYD2 (Homo sapiens, UniProt Q9NRG4). The assay can be described thus: Selectivity interaction (Protein methyltransferase panel (activity assay)) EUB0000211b SMYD2.
Assay [6] deals with Histone-lysine N-methyltransferase SETD7 (Homo sapiens) (UniProt Q8WTS6). Put plainly: Selectivity interaction (Protein methyltransferase panel (activity assay)) EUB0000211b SETD7.
In assay [7] the target is Tudor domain-containing protein 3 (Homo sapiens) (UniProt Q9H7E2). The assay can be described thus: Selectivity interaction (Methyl-Lysine/Arginine panel (DSF assay)) EUB0000211b TDRD3. The following applies: OICR-# does not inhibit the C/EBPa p30-Wdr5 interaction (Western Blot), PMID: #;, Selectivity Remarks In vitro, Selectivity Source Knowledge https://www.thesgc.org/chemical-probes/OICR-9429, S. A general note: In DSF a fluorescence change marks the thermal transition of the protein.

For assay [8], the target named is Protein arginine N-methyltransferase 8 (Homo sapiens, UniProt Q9NR22). Put plainly: Selectivity interaction (Protein methyltransferase panel (activity assay)) EUB0000211b PRMT8.
Assay [9] deals with Protein arginine N-methyltransferase 9 (Homo sapiens) (UniProt Q6P2P2). The assay can be described thus: Selectivity interaction (Protein methyltransferase panel (activity assay)) EUB0000211b PRMT9.
The target in assay [10] is Histone-lysine N-methyltransferase, H3 lysine-36 specific (Homo sapiens) (UniProt Q96L73). Put plainly: Selectivity interaction (Protein methyltransferase panel (activity assay)) EUB0000211b NSD1.
Assay [11] concerns the target N-lysine methyltransferase KMT5A (Homo sapiens) (UniProt Q9NQR1). The assay can be described thus: Selectivity interaction (Protein methyltransferase panel (activity assay)) EUB0000211b SETD8.
Assay [12] deals with Histone-lysine N-methyltransferase SUV39H2 (Homo sapiens, UniProt Q9H5I1). Put plainly: Selectivity interaction (Protein methyltransferase panel (activity assay)) EUB0000211b SUV39H2.
Assay [13] addresses Histone-lysine N-methyltransferase NSD3 (Homo sapiens) (UniProt Q9BZ95). The assay can be described thus: Selectivity interaction (Protein methyltransferase panel (activity assay)) EUB0000211b NSD3.
For assay [14], the target named is Histone-lysine N-methyltransferase SETDB1 (Homo sapiens, UniProt Q15047). Put plainly: Selectivity interaction (Protein methyltransferase panel (activity assay)) EUB0000211b SETDB1.
Assay [15] deals with Histone-lysine N-methyltransferase KMT5C (Homo sapiens, UniProt Q86Y97). The assay can be described thus: Selectivity interaction (Protein methyltransferase panel (activity assay)) EUB0000211b SUV420H2.
Assay [16] has as its target Protein arginine N-methyltransferase 5 (Homo sapiens, UniProt O14744). The assay can be described thus: Selectivity interaction (Protein methyltransferase panel (activity assay)) EUB0000211b PRMT5.
The target in assay [17] is Histone-lysine N-methyltransferase KMT5B (Homo sapiens, UniProt Q4FZB7). Put plainly: Selectivity interaction (Protein methyltransferase panel (activity assay)) EUB0000211b SUV420H1.
Assay [18] addresses Histone-lysine N-methyltransferase NSD2 (Homo sapiens) (UniProt O96028). The assay can be described thus: Selectivity interaction (Protein methyltransferase panel (activity assay)) EUB0000211b NSD2.
Assay [19] addresses Protein arginine N-methyltransferase 3 (Homo sapiens, UniProt O60678). Put plainly: Selectivity interaction (Protein methyltransferase panel (activity assay)) EUB0000211b PRMT3.
The target in assay [20] is Histone-lysine N-methyltransferase EHMT1 (Homo sapiens) (UniProt Q9H9B1). Put plainly: Selectivity interaction (Protein methyltransferase panel (activity assay)) EUB0000211b EHMT1.
Assay [21] deals with Histone-lysine N-methyltransferase, H3 lysine-79 specific (Homo sapiens, UniProt Q8TEK3). Put plainly: Selectivity interaction (Protein methyltransferase panel (activity assay)) EUB0000211b DOT1L.
The target in assay [22] is DNA (cytosine-5)-methyltransferase 1 (Homo sapiens, UniProt P26358). The assay can be described thus: Selectivity interaction (Protein methyltransferase panel (activity assay)) EUB0000211b DNMT1.
Assay [23] has as its target Histone-lysine N-methyltransferase EHMT2 (Homo sapiens) (UniProt Q96KQ7). The assay can be described thus: Selectivity interaction (Protein methyltransferase panel (activity assay)) EUB0000211b EHMT2.
Assay [24] concerns the target Protein arginine N-methyltransferase 1 (Homo sapiens, UniProt Q99873). Put plainly: Selectivity interaction (Protein methyltransferase panel (activity assay)) EUB0000211b PRMT1.
The target in assay [25] is Protein arginine N-methyltransferase 6 (Homo sapiens, UniProt Q96LA8). The assay can be described thus: Selectivity interaction (Protein methyltransferase panel (activity assay)) EUB0000211b PRMT6.
The target of assay [26] is Histone-lysine N-methyltransferase EZH2 (Homo sapiens, UniProt Q15910). The assay can be described thus: Selectivity interaction (Protein methyltransferase panel (activity assay)) EUB0000211b EZH2.
Assay [27] has as its target Dual specificity protein kinase TTK (Homo sapiens) (UniProt P33981). The assay can be described thus: Selectivity interaction (KinomeScan (DiscoverX)) EUB0000691a TTK. The conditions noted are these: at 10 µM.
Assay [28] addresses Dual specificity mitogen-activated protein kinase kinase 4 (Homo sapiens) (UniProt P45985). Put plainly: Selectivity interaction (KinomeScan (DiscoverX)) EUB0000691a MAP2K4. The conditions noted are these: at 10 µM.
In assay [29] the target is Phosphatidylinositol 3-kinase C2 domain-containing subunit gamma (Homo sapiens) (UniProt O75747). The assay can be described thus: Selectivity interaction (KinomeScan (DiscoverX)) EUB0000691a PIK3C2G. The conditions noted are these: at 10 µM.
Assay [30] has as its target Serine/threonine-protein kinase 16 (Homo sapiens, UniProt O75716). The assay can be described thus: Selectivity interaction (KinomeScan (DiscoverX)) EUB0000691a STK16. The following applies: at 10 µM.
The target in assay [31] is Tyrosine-protein kinase JAK1 (Homo sapiens, UniProt P23458). Put plainly: Selectivity interaction (KinomeScan (DiscoverX)) EUB0000691a JAK1@kinase 1. The following applies: at 10 µM.
Assay [32] deals with T2, Cyclin-G-associated kinase (Homo sapiens) (UniProt O14976).
T2 sequence (whole entry): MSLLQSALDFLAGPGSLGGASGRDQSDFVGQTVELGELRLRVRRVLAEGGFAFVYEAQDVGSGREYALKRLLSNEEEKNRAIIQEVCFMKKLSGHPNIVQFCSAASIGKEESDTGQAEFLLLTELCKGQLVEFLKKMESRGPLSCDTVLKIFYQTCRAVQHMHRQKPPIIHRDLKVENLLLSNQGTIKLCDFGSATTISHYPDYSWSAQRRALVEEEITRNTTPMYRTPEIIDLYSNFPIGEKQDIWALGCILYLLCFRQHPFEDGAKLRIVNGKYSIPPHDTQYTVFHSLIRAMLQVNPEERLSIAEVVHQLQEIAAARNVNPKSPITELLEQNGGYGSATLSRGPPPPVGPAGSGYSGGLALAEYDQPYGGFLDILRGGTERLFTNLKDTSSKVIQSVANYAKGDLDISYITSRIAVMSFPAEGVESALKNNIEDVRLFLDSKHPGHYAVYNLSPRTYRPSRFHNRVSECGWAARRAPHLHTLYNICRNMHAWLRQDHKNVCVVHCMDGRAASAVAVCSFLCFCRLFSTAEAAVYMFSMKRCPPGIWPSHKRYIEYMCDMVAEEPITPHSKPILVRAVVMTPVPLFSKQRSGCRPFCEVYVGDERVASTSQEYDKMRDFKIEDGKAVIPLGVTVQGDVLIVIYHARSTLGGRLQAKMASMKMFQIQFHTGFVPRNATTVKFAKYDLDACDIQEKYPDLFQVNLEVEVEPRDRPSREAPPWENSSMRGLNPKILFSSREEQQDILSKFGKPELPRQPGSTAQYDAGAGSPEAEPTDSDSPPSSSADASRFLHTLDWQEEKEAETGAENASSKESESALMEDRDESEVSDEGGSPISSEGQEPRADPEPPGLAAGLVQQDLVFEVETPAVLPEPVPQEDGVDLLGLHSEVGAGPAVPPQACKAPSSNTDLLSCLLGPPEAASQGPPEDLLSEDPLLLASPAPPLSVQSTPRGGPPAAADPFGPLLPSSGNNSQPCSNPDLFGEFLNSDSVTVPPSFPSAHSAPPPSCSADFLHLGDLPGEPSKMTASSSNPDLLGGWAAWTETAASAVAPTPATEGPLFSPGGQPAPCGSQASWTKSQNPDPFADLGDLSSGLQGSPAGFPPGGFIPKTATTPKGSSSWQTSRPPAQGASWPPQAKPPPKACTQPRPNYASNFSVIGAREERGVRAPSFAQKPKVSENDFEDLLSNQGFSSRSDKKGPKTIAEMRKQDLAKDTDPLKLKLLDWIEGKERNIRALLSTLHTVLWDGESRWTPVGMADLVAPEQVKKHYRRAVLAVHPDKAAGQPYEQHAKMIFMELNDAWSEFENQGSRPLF
Put plainly: Selectivity interaction (KinomeScan (DiscoverX)) EUB0000691a GAK. The conditions noted are these: at 10 µM.

Sequence of Dual specificity mitogen-activated protein kinase kinase 4 (Homo sapiens) (P45985 whole entry, the tested form may be a part): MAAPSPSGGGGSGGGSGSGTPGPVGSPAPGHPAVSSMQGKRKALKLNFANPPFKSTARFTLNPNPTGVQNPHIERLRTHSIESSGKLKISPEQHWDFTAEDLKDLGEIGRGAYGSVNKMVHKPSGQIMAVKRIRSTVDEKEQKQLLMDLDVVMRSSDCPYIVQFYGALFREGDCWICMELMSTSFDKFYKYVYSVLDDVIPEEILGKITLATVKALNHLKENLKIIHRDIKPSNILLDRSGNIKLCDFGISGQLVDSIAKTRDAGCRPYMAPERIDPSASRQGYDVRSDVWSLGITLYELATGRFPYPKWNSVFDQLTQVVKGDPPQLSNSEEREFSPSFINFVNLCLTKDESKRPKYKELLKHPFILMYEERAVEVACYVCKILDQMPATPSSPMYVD
Sequence of Histone-lysine N-methyltransferase KMT5C (Q86Y97 whole entry, looked up): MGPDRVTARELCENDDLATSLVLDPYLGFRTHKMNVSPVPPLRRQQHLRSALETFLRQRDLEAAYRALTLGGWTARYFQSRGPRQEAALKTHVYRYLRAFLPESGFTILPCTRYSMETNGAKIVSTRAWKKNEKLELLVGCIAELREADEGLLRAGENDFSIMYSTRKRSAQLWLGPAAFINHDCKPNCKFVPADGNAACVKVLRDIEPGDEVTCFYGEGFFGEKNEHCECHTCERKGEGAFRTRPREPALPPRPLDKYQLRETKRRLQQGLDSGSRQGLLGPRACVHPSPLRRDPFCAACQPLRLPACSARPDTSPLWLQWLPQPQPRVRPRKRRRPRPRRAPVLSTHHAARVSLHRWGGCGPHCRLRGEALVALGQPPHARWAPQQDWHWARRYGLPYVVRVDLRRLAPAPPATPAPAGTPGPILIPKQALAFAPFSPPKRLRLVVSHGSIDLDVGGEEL
Sequence of Protein arginine N-methyltransferase 5 (O14744 whole entry): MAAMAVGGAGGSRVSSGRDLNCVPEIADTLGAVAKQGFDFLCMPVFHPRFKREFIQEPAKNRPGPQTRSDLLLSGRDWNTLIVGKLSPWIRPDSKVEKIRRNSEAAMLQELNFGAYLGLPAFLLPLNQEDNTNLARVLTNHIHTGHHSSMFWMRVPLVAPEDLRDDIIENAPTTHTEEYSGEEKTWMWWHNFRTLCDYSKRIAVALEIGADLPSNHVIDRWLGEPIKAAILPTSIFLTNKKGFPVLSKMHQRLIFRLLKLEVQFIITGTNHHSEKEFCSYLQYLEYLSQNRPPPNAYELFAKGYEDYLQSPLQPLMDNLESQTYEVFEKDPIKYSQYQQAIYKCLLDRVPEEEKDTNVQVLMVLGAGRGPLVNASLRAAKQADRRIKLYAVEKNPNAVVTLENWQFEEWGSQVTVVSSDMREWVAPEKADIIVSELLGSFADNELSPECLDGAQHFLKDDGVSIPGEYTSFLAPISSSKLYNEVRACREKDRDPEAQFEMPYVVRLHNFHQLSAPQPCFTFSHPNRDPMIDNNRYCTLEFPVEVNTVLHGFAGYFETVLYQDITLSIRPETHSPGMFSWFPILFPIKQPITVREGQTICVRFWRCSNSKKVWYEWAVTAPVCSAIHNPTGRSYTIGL
Sequence of Serine/threonine-protein kinase 16 (O75716 whole entry): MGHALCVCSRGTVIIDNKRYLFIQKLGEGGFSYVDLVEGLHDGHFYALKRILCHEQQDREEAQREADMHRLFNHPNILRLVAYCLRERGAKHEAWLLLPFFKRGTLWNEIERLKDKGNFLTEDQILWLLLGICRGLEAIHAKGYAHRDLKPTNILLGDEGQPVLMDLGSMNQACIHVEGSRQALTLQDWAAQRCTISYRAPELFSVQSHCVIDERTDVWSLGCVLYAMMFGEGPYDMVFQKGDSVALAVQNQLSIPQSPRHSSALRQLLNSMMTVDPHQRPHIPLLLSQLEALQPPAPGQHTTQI
Sequence of Histone-lysine N-methyltransferase, H3 lysine-79 specific (Q8TEK3 whole entry, looked up): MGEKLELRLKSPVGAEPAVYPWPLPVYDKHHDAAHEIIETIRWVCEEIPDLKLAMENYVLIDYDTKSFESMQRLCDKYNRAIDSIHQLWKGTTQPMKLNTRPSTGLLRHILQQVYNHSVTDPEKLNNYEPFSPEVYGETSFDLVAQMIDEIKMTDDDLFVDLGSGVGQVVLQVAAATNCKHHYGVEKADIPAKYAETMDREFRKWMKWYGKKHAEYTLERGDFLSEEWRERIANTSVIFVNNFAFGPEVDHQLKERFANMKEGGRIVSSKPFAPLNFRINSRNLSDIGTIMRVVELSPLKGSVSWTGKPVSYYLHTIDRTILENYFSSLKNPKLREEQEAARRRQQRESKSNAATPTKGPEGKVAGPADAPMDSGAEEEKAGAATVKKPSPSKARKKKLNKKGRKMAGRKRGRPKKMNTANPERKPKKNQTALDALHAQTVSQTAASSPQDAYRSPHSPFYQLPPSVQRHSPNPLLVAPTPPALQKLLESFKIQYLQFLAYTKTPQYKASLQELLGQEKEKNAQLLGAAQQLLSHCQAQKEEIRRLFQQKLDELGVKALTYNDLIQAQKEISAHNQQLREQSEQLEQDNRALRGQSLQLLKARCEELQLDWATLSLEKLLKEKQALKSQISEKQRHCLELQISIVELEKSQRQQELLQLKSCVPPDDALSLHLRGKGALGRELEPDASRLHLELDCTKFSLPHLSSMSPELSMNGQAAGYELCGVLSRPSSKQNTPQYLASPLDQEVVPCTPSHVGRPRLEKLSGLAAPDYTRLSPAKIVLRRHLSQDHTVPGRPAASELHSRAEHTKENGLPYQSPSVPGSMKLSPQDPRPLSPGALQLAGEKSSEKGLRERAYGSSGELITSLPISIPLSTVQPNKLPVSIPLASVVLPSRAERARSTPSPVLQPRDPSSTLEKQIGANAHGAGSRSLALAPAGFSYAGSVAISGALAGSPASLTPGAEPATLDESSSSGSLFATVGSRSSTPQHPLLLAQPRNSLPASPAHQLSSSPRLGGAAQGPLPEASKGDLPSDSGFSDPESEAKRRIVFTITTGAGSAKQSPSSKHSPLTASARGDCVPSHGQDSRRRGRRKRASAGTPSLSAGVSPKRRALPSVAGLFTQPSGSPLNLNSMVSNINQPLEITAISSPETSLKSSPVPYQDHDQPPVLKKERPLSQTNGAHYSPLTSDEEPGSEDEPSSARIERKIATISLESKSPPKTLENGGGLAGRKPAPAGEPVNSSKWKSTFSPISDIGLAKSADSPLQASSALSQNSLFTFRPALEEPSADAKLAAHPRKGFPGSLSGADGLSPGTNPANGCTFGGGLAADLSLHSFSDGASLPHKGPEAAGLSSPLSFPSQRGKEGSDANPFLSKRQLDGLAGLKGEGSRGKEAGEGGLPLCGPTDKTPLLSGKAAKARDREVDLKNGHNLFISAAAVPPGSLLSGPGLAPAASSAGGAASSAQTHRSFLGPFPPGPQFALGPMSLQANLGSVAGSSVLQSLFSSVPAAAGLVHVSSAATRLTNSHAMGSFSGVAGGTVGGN
Sequence of Histone-lysine N-methyltransferase EHMT1 (Homo sapiens) (Q9H9B1 whole entry): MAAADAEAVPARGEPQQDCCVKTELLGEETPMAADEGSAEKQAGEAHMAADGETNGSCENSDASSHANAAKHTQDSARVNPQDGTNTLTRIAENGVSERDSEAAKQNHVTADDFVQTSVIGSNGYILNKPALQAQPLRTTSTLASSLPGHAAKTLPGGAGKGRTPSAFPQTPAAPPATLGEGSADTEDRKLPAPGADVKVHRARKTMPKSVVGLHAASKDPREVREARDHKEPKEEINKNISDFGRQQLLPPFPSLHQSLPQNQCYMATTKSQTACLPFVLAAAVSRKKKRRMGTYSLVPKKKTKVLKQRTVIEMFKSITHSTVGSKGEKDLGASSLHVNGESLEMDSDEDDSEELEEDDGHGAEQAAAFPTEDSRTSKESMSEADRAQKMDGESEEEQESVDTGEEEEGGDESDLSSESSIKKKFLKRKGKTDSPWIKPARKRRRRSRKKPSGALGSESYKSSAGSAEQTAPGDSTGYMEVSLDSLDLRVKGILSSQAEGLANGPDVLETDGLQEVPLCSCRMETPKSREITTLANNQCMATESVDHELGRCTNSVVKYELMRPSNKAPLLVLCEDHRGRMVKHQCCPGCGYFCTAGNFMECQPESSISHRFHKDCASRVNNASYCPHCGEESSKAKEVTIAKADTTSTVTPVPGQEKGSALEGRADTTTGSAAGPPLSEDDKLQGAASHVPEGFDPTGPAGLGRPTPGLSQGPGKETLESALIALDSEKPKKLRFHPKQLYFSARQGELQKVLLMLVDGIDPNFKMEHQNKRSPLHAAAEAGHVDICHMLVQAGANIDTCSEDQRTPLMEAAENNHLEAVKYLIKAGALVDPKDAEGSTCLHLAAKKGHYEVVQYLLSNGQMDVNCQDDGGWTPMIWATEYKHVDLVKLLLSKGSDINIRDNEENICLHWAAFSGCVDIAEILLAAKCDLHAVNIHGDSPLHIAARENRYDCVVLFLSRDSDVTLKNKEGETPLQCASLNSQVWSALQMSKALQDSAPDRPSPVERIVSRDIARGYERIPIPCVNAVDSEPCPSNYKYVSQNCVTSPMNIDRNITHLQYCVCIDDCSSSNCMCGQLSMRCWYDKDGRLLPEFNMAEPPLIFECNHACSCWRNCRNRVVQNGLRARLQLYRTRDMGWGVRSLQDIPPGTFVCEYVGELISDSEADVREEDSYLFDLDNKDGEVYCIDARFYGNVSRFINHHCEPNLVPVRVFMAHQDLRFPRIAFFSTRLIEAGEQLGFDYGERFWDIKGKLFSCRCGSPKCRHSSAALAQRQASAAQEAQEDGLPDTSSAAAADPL
Sequence of Protein arginine N-methyltransferase 1 (Q99873 whole entry, looked up): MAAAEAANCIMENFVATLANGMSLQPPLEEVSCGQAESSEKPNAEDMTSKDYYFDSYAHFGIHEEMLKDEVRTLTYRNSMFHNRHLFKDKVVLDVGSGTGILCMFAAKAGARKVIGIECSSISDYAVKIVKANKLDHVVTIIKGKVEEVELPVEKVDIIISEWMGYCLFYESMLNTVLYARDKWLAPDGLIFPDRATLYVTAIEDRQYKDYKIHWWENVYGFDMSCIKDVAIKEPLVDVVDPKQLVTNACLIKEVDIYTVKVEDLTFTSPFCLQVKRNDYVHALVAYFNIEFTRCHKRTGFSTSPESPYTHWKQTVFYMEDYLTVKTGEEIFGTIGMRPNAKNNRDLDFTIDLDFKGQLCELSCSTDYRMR

For the molecule `C[C@@H]1CCc2ncc(F)cc2[C@H]2CCCN2c2ccn3ncc(c3n2)C(=O)N1`, the % of control at Activated CDC42 kinase 1 is 10%; in assay [1], 12%; in [2], 14%; in assay [3], 15%.

With `CN1CCN(c2ccc(-c3cccc(CN4CCOCC4)c3)cc2NC(=O)c2c[nH]c(=O)cc2C(F)(F)F)CC1`, the % activity remaining in assay [4], in assay [5], in assay [6], in assay [8], in assay [9] and in assay [10] was over 90% throughout. The % activity remaining in assay [11], in assay [12], in assay [13], in [14], in assay [15] and in [16] was over 90% in each case. For the same molecule, the % activity remaining was over 90% in [17]; over 80% in assay [18]; over 90% in assay [19]; over 90% in [20]; over 90% in [21]; over 90% in assay [22]. Besides, the % activity remaining in [23], in assay [24], in [25] and in [26] was over 90% each time. This molecule came in with a dTm in [7] of 1.8 K.

In the case of `COc1ncc(-c2ccc3nccc(-c4ccnnc4)c3c2)cc1NS(=O)(=O)c1ccc(F)cc1F`, the % of control is 4% in [27]; 5.9% in assay [28]; 4.4% in assay [29]; 3.4% in assay [30]; 2.2% in [31]; 0.2% in assay [32].

The values above are taken from ChEMBL document CHEMBL5212743, “Selectivity Literature for EUbOPEN Chemogenomics Library wave 3” (2023).
